Test results from patent US20140322758A1, “ADDITION OF IRON TO IMPROVE CELL CULTURE” (Pfizer Inc., priority 2011, published 2014).

Legend:
[1] = test system: cell line producing a monoclonal antibody (clone 2.8); experiment: Fed batch culture of clone 2.8 in shake flasks, Fe addition on day 0 or day 9; type: cell-based; conditions: 600 μM added on day 0
Protocol: This experiment is designed to test whether a high concentration of Fe added at day 0 would have an advantageous effect. […] Seed density was 1.5×10^6 cells/mL. The cells were cultured for 14 days. The basal medium was a chemically defined basal medium supplemented with amino acids including 4 mM glutamine. Feed medium is a chemically defined concentrated feed medium. Fe-citrate or FeSO4 was added on day 0 or day 9 to effect a concentration of 600 μM of iron in the cell culture medium. Cells were subjected to cell density, viability, titer and Qp analysis at various time points throughout the cell culture process as described in previous examples.

[2] = test system: CHO cells expressing an nanobody; experiment: Fed batch culture of CHO cells expressing a nanobody in shake flasks, FeSO4 addition on day 6; type: cell-based, Chinese hamster; conditions: 1 mM iron added on day 6
Protocol: CHO cells expressing an nanobody were grown by fed batch culture in shake flasks. Cells were initially cultured in 7% CO2 incubator at 37° C. for 0-4 days and shifted to 31° C. after day 4. FeSO4 was added on day 6 to effect a concentration of 1 mM of iron in the cell culture medium. Cells were subjected to cell density, viability, titer, lactate level and Qp analysis at various time points throughout the cell culture process as described in Example 1.

ferric citrate [Fe-citrate]
cell growth ([1]; FIG. 11): increased cell growth at early stage
viability on day 14 ([1]; control 74-80%, FIG. 12): about 75%
Qp ([1]; throughout the culture, FIG. 13): lower than all other conditions

O=S(=O)([O-])[O-].[Fe+2] [FeSO4]
Qp ([2]; control 10 μg/e6/day, FIG. 9): 20 μg/e6/day
lactate level ([2]; control increased to 2.24 g/L on day 15, FIG. 10): ~0 g/L
titer ([2]; read on day 15, control 1.5 g/L, FIG. 8): 3.2 g/L
viability ([2]; read on day 15, control 70%, FIG. 7): 96%
